In the SangsterLogP compilation one finds logP data, which are given here for 13 compounds.

The logP is a log measure of how a compound divides between an organic and an aqueous phase. A high value points to higher lipophilicity.

A short description of the data set: method code SF-AS, from PMID: 8295915.
Regarding `CCNc1nc(C)c(C(=O)CCN(CC)CC)s1`, the logP stood at 2.72.
The compound `CCNc1nc(C)c(C(=O)CCN2CCOCC2)s1` showed a lipophilicity (logP) of 1.43.
In the case of `Cc1nc(N)sc1C(=O)CCN1CCCC1` it was 1.74.
For `CCNc1nc(C)c(C(=O)CCN2CCCCC2)s1`, the logP was found to be 2.66.
On to `Cc1nc(N)sc1C(=O)CCN(C)C`, for which the lipophilicity (logP) amounted to 1.47.
In the case of `CNc1nc(C)c(C(=O)CCN2CCOCC2)s1` it was 0.95.
In the case of `CCN(CC)CCC(=O)c1sc(N)nc1C` it was 1.76; in that of `Cc1nc(N)sc1C(=O)CCN1CCOCC1`, 0.82; in that of `CNc1nc(C)c(C(=O)CCN2CCCC2)s1`, 1.86.
In the case of `CCNc1nc(C)c(C(=O)CCN(C)C)s1` it was 2.21; in that of `CNc1nc(C)c(C(=O)CCN2CCCCC2)s1`, 2.21; in that of `Cc1nc(N)sc1C(=O)CCN1CCCCC1`, 2.13.
`CNc1nc(C)c(C(=O)CCN(C)C)s1` displayed a logP of 1.58.
